Series [1] deals with p110β/p85 (Homo sapiens, UniProt P42338). Briefly: Inhibition of isolated enzyme (lipid kinase assay, [γ33P]ATP, TLC). Format: biochemical. The conditions noted are these: recombinant enzyme, 100 μM ATP, 1 hr room temperature, average of two experiments. In a few lines: (§1)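 Each recombinant p110/p85 enzyme (0.1 μg) was incubated with 10 μg L-α-phosphatidylinositol in Tris-HCl pH 7.4 buffer with NaCl and EDTA, 1% final DMSO, and was started with ATP mix (100 μM ATP, 5 mM MgCl2, [γ33P]ATP). Reactions ran 1 h at room temperature, and the lipids were extracted, TLC-separated and phosphorimaged. IC50 came from nine concentrations and is the mean of two experiments.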

Series [2] deals with p110δ/p85 (Homo sapiens, UniProt O00329). The series is described as above. In kind it is biochemical. Particulars: recombinant enzyme, 100 μM ATP, 1 hr room temperature, average of two experiments. A digest of the protocol:
as §1

Series [3] has as its target p110α/p85 (Homo sapiens, UniProt P42336). The description is as above. In kind it is biochemical. The conditions noted are these: recombinant enzyme, 100 μM ATP, 1 hr room temperature, average of two experiments. In a few lines:
as §1

Series [4] concerns NZOV9. The experiment in a line: Cellular growth inhibition (3H-thymidine incorporation). Format: cell-based. The conditions noted are these: Homo sapiens, five days incubation, 3H-thymidine over the last 6 hrs, read-out: Cell IC50* NZOV9. How it is done:
(§2) The compounds were evaluated against two early passage human cell lines NZB5 and NZOV9 (Marshall et al., Oncol. Res. 2004, 14, 297). The cells were grown in ITS medium (α-modified minimal essential medium supplemented insulin, transferrin, selenite, and 5% fetal bovine serum) and grown on 96-well tissue culture plates under an atmosphere of 5% O2, 5% CO2, and 90% N2. Individual wells contained 500-1,000 cells (depending on the growth rate) in a volume of 150 μL. Compounds were added at 10-fold concentration steps to a maximum of 20 μM and plates were incubated for five days, with ^3H-thymidine being added over the last 6 hrs. Cells were harvested and incorporated radioactivity measured. Duplicate samples were analyzed for each compound dose with multiple control samples. Data were fitted by a least-squares method to an exponential of the form y=y0+ae^−bx, where y is the radioactivity (corrected for background and normalized to 100% of the control), x is the […], and y0, a, and b are variables, and the IC50 value defined as the compound concentration reducing ^3H-thymidine levels by 50%.

The test system of series [5] is NZB5. The description is as above. Format: cell-based. Particulars: Homo sapiens, five days incubation, 3H-thymidine over the last 6 hrs, read-out: Cell IC50* NZB5. As for the experimental part:
as §2

The test system of series [6] is PI3K. The conditions noted are these: background, literature; cited from earlier work.
The subject of series [7] is human tumor xenografts. The conditions noted are these: mice with human tumor xenografts; cited from earlier work. (In general: A xenograft is tissue or cells of one species grown in another, often human tumour cells in immunodeficient mice.)

Sequence of p110α/p85 (P42336 whole entry): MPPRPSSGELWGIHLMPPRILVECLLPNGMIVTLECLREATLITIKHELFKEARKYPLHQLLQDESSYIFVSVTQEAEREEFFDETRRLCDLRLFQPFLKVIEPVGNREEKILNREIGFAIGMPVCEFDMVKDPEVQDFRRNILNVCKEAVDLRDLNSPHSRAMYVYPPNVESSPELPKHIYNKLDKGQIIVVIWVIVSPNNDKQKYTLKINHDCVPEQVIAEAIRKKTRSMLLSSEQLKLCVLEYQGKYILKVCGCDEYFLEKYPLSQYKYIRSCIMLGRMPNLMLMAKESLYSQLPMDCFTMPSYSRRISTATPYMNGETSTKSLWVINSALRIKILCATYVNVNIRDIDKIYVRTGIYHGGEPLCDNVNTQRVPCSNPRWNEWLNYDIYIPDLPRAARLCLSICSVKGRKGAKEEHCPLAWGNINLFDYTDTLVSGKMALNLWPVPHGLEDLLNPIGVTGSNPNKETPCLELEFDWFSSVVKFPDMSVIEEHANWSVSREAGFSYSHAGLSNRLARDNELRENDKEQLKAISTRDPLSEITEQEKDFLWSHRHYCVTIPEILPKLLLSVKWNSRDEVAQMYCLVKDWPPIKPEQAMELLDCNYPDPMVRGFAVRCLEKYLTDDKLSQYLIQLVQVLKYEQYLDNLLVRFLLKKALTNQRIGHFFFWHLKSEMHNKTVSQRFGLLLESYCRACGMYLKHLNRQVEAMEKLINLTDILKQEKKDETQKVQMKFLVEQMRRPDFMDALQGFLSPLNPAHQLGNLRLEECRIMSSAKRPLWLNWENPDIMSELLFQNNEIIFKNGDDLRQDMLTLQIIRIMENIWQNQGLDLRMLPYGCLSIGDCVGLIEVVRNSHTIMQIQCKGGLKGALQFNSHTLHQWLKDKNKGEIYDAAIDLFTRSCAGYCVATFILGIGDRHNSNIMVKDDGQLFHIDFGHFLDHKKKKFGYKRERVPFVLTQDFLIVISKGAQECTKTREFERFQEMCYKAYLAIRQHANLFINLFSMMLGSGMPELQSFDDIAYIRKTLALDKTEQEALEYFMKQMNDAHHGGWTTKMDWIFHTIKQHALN
Sequence of p110α/p85 (P27986 whole entry partner): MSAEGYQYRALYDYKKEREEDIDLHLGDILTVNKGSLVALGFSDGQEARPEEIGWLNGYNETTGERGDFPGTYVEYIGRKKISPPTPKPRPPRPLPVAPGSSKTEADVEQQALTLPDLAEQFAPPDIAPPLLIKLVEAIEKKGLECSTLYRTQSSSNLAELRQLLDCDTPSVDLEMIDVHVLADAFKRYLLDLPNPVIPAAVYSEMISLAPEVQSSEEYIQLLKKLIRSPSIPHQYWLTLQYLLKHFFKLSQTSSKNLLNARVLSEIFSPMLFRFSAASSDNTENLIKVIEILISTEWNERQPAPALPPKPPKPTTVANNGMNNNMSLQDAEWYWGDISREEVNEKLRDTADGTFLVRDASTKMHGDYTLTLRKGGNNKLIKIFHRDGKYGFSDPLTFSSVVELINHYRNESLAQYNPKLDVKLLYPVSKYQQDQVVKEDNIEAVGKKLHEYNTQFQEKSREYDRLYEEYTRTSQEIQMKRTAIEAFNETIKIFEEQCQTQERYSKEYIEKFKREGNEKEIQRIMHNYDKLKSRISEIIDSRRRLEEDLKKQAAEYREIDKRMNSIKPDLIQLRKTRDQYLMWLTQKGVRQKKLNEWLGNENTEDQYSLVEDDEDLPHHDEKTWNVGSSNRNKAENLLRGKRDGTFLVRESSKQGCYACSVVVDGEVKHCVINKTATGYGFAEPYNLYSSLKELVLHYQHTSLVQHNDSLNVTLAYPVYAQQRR
Sequence of p110δ/p85 (O00329 whole entry, species assumed): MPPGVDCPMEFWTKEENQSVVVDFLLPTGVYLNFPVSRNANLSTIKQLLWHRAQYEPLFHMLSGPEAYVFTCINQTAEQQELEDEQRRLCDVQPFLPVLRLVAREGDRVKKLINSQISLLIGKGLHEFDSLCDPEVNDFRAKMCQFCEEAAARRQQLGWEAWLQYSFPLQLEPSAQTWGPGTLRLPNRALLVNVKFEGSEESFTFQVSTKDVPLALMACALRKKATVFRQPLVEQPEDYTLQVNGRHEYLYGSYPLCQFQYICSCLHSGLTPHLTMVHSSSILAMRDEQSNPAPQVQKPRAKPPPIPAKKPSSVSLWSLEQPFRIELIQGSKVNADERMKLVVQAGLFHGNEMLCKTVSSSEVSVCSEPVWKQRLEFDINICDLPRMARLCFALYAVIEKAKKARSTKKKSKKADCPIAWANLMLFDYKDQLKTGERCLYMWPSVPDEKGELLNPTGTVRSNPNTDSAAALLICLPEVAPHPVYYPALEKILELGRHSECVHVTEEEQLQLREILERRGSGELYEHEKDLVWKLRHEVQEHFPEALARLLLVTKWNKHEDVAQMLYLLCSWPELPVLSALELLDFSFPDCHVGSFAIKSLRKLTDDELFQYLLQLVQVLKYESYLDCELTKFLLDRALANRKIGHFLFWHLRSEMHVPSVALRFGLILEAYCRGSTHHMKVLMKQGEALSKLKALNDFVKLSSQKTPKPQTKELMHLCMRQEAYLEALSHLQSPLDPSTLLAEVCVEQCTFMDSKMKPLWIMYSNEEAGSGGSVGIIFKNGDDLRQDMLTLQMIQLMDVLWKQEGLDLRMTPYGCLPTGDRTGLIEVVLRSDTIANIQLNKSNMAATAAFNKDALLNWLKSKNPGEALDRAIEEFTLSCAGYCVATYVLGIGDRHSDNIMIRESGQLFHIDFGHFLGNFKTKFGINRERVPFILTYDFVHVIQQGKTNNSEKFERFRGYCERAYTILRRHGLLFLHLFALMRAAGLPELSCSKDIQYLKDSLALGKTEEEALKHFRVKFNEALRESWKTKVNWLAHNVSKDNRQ
Sequence of p110δ/p85 (P27986 whole entry partner, species assumed): as the sequence (P27986 whole entry partner) above
Sequence of p110β/p85 (P42338 whole entry, species assumed): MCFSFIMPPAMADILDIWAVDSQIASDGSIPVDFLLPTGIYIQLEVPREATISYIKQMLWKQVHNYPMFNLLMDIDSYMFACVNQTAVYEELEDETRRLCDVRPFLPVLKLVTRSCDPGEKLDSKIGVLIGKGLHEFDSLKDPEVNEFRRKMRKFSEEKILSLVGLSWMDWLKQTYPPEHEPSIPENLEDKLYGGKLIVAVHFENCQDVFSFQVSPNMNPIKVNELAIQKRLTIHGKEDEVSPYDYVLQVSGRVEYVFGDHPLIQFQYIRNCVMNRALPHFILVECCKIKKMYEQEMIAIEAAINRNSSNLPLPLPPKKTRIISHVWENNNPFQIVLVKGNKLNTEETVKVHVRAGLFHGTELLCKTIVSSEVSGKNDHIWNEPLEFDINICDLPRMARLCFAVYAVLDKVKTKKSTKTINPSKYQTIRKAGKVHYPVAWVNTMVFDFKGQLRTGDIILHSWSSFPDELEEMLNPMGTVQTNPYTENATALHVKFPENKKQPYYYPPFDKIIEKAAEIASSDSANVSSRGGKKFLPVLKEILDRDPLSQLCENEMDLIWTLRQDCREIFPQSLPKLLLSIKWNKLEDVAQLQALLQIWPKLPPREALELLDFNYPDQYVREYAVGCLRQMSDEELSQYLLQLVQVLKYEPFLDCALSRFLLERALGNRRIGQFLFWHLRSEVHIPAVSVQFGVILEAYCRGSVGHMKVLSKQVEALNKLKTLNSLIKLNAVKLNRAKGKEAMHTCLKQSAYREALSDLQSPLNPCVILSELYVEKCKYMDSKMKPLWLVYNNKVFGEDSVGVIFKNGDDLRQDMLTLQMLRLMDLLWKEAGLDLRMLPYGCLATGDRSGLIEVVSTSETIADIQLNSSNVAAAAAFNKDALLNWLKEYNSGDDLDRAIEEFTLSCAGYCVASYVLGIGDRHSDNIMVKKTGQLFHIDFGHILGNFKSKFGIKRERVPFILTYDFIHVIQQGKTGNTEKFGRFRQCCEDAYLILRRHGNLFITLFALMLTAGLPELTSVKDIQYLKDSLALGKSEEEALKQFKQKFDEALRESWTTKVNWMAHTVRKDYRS
Sequence of p110β/p85 (P27986 whole entry partner, species assumed): as the sequence (P27986 whole entry partner) above

`COc1ccc(Nc2nc(N3CCOCC3)nc(-n3c(C(F)F)nc4c(OC)cccc43)n2)cn1` [Example 28, 4-[2-(difluoromethyl)-4-methoxy-1H-benzimidazol-1-yl]-N-(6-methoxy-3-pyridinyl)-6-(4-morpholinyl)-1,3,5-triazin-2-amine] registered a melting point of 201 to 202 °C. Also, in series [1], the IC50 is less than 100 nM. The IC50 in series [2] was less than 100 nM. Besides, in series [3], the IC50 is less than 100 nM. Besides, the IC50 in series [4] was less than 100 nM. In addition, the IC50 in series [5] was less than 100 nM.

For the compound `COc1cccc2c1nc(C(F)F)n2-c1nc(Nc2ccc(F)nc2)nc(N2CCOCC2)n1` [Example 29, 4-[2-(difluoromethyl)-4-methoxy-1H-benzimidazol-1-yl]-N-(6-fluoro-3-pyridinyl)-6-(4-morpholinyl)-1,3,5-triazin-2-amine], the melting point lay in the range of 261 to 263 °C. Besides, the IC50 in series [1] fell in the range of 100 to 1000 nM. In addition, in series [2], the IC50 is less than 100 nM. The IC50 in series [3] is less than 100 nM. Moreover, the IC50 in series [4] was less than 100 nM. For the same compound, the IC50 in series [5] was less than 100 nM.

The compound `COc1cccc2c1nc(C(F)F)n2-c1nc(Nc2ccc(Cl)nc2)nc(N2CCOCC2)n1` [Example 30, N-(6-chloro-3-pyridinyl)-4-[2-(difluoromethyl)-4-methoxy-1H-benzimidazol-1-yl]-6-(4-morpholinyl)-1,3,5-triazin-2-amine] yielded a melting point of 260 to 262 °C. For the same compound, the IC50 in series [1] was in the range of 100 to 1000 nM. Also, the IC50 in series [2] is less than 100 nM. In addition, the IC50 in series [3] was less than 100 nM. In series [4], the IC50 is less than 100 nM. For the same compound, in series [5], the IC50 is less than 100 nM.

On to `COc1cccc2c1nc(C(F)F)n2-c1nc(Nc2cncnc2)nc(N2CCOCC2)n1` [Example 31, 4-[2-(difluoromethyl)-4-methoxy-1H-benzimidazol-1-yl]-6-(4-morpholinyl)-N-(5-pyrimidinyl)-1,3,5-triazin-2-amine], for which the melting point was 293 to 295 °C. In addition, the concentration for half-maximal inhibition (IC50) in series [1] was 100 to 1000 nM. In addition, in series [2], the IC50 is less than 100 nM. For the same compound, the 50% inhibitory concentration (IC50) in series [3] was less than 100 nM. Besides, the IC50 in series [4] was less than 100 nM. Besides, the IC50 in series [5] was less than 100 nM.

Regarding `COc1cc(Nc2nc(N3CCOCC3)nc(-n3c(C(F)F)nc4c(OC)cccc43)n2)ncn1` [Example 32, 4-(2-(difluoromethyl)-4-methoxy-1H-benzimidazol-1-yl)-N-(6-methoxypyrimidin-4-yl)-6-morpholino-1,3,5-triazin-2-amine], the melting point was in the range of 256 to 259 °C. Besides, the half-maximal inhibitory concentration (IC50) in series [1] was in the range of 100 to 1000 nM. In series [2], the IC50 is less than 100 nM. Further, the half-inhibitory concentration (IC50) in series [3] was less than 100 nM. In addition, the IC50 in series [4] is less than 100 nM. In addition, the IC50 in series [5] is more than 10000 nM.

`COc1cccc2c1nc(C(F)F)n2-c1nc(Nc2cccnn2)nc(N2CCOCC2)n1` [Example 33, 4-[2-(difluoromethyl)-4-methoxy-1H-benzimidazol-1-yl]-6-(4-morpholinyl)-N-(3-pyridazinyl)-1,3,5-triazin-2-amine] yielded a melting point of 261 to 263 °C. The IC50 in series [1] is 100 to 1000 nM. For the same compound, the IC50 in series [2] was less than 100 nM. Also, the IC50 in series [3] was less than 100 nM. In series [4], the IC50 is less than 100 nM. Also, the half-inhibitory concentration (IC50) in series [5] fell in the range of 100 to 1000 nM.

The compound `COc1ccc(Nc2nc(N3CCOCC3)nc(-n3c(C(F)F)nc4c(OC)cccc43)n2)nn1` [Example 34, 4-[2-(difluoromethyl)-4-methoxy-1H-benzimidazol-1-yl]-N-(6-methoxy-3-pyridazinyl)-6-(4-morpholinyl)-1,3,5-triazin-2-amine] returned a melting point of 256 to 259 °C. Further, in series [1], the IC50 lay within 100 to 1000 nM. Also, the IC50 in series [2] was less than 100 nM. Also, the IC50 in series [3] is less than 100 nM. Besides, in series [4], the IC50 was 100 to 1000 nM. In addition, in series [5], the IC50 is 100 to 1000 nM.

On to `COc1cccc2c1nc(C(F)F)n2-c1nc(Nc2ccncn2)nc(N2CCOCC2)n1` [Example 36, 4-[2-(difluoromethyl)-4-methoxy-1H-benzimidazol-1-yl]-6-(4-morpholinyl)-N-(4-pyrimidinyl)-1,3,5-triazin-2-amine], for which the melting point is 234 to 236 °C. Further, in series [1], the IC50 lay within 100 to 1000 nM. In series [2], the 50% inhibitory concentration (IC50) was less than 100 nM. Besides, in series [3], the IC50 is less than 100 nM. Further, the half-inhibitory concentration (IC50) in series [4] was less than 100 nM. The IC50 in series [5] was less than 100 nM.

The compound `COc1cccc2c1nc(C(F)F)n2-c1nc(Nc2ccc(N)nc2)nc(N2CCOCC2)n1` [Example 37, N^5-[4-[2-(difluoromethyl)-4-methoxy-1H-benzimidazol-1-yl]-6-(4-morpholinyl)-1,3,5-triazin-2-yl]-2,5-pyridinediamine] registered a melting point of 267 to 270 °C. In addition, the IC50 in series [1] fell in the range of 100 to 1000 nM. Besides, in series [2], the IC50 is less than 100 nM. Besides, in series [3], the IC50 was less than 100 nM. In addition, the IC50 in series [4] is less than 100 nM. Also, the IC50 in series [5] was less than 100 nM.

The compound `CNc1ccc(Nc2nc(N3CCOCC3)nc(-n3c(C(F)F)nc4c(OC)cccc43)n2)cn1` [Example 38, N^5-[4-[2-(difluoromethyl)-4-methoxy-1H-benzimidazol-1-yl]-6-(4-morpholinyl)-1,3,5-triazin-2-yl]-N^2-methyl-2,5-pyridinediamine] came in with a melting point of 218 to 221 °C. The IC50 in series [1] lay in the range of 100 to 1000 nM. Besides, the IC50 in series [2] was less than 100 nM. In addition, in series [3], the IC50 was less than 100 nM. In series [4], the IC50 is less than 100 nM. The IC50 in series [5] is less than 100 nM.

`COc1cccc2c1nc(C(F)F)n2-c1nc(Nc2ccc(N(C)C)nc2)nc(N2CCOCC2)n1` [Example 39, N^5-[4-[2-(difluoromethyl)-4-methoxy-1H-benzimidazol-1-yl]-6-(4-morpholinyl)-1,3,5-triazin-2-yl]-N^2,N^2-dimethyl-2,5-pyridinediamine] came in with a melting point of 136 to 137 °C. Also, in series [1], the IC50 fell in the range of 100 to 1000 nM. The IC50 in series [2] is less than 100 nM. Besides, the IC50 in series [3] is less than 100 nM. In addition, the IC50 in series [4] is less than 100 nM. Moreover, the IC50 in series [5] was less than 100 nM.

`FC(F)c1nc2ccccc2n1-c1nc(-c2cccnc2)nc(N2CCOCC2)n1` [Example 47, 2-(difluoromethyl)-1-[4-(4-morpholinyl)-6-(3-pyridinyl)-1,3,5-triazin-2-yl]-1H-benzimidazole] came in with a melting point of 199 to 201 °C. Also, the IC50 in series [1] fell in the range of 100 to 1000 nM. Further, the half-maximal inhibitory concentration (IC50) in series [2] is less than 100 nM. For the same compound, the IC50 in series [3] is less than 100 nM. The IC50 in series [4] lay within 100 to 1000 nM. Moreover, the IC50 in series [5] lay in the range of 100 to 1000 nM.

Take `Cc1ccccc1-n1c(Cn2cnc3c(N)ncnc32)nc2cccc(C)c2c1=O` [IC87114]: the PI3K isoform selectivity result in series [6] is listed as “δ-selective”.

For `O=c1cc(N2CCOCC2)oc2c(-c3ccccc3)cccc12` [LY294002], the tolerability result in series [7] is “well-tolerated”.

As to `Oc1cccc(-c2nc(N3CCOCC3)c3oc4ncccc4c3n2)c1` [PI103], the PI3K isoform selectivity entry in series [6] is reported as “slightly α-selective”.

Turning to `Cc1cc(C(C)Nc2ccccc2)c2nc(N3CCOCC3)cc(=O)n2c1` (centres unmarked) [TGX221], the PI3K isoform selectivity result in series [6] is “β-selective”.

Turning to `FC(F)c1nc2ccccc2n1-c1nc(N2CCOCC2)nc(N2CCOCC2)n1` [ZSTK474], the PI3K isoform selectivity result in series [6] is “non-selective”.

A word on the melting point: it is the temperature, or range, at which the solid turns liquid. As usually defined, the IC50 is the concentration at which inhibition is half-maximal.

The values are drawn from patent publication US8486939B2, “Pyrimidinyl and 1,3,5-triazinyl benzimidazoles and their use in cancer therapy” (Pathway Therapeutics Inc., priority 2009, dated 2013).
